Measured values as given in patent US20250177359A1, “COMPOUNDS FOR USE IN THE TREATMENT OF CANCER AND INFLAMMATORY CONDITIONS” (priority 2022, published 2025).
Read-outs that look alike come from different tables or passages of the source.

Experiments:
PARP10 = target: T1, PARP10 (Homo sapiens, UniProt Q53GL7); test: Activity assay measuring NAD+ consumption, PARP10 (Tables 1-3); format: biochemical
T1 construct: made in house
T1 sequence (Q53GL7 1-1025): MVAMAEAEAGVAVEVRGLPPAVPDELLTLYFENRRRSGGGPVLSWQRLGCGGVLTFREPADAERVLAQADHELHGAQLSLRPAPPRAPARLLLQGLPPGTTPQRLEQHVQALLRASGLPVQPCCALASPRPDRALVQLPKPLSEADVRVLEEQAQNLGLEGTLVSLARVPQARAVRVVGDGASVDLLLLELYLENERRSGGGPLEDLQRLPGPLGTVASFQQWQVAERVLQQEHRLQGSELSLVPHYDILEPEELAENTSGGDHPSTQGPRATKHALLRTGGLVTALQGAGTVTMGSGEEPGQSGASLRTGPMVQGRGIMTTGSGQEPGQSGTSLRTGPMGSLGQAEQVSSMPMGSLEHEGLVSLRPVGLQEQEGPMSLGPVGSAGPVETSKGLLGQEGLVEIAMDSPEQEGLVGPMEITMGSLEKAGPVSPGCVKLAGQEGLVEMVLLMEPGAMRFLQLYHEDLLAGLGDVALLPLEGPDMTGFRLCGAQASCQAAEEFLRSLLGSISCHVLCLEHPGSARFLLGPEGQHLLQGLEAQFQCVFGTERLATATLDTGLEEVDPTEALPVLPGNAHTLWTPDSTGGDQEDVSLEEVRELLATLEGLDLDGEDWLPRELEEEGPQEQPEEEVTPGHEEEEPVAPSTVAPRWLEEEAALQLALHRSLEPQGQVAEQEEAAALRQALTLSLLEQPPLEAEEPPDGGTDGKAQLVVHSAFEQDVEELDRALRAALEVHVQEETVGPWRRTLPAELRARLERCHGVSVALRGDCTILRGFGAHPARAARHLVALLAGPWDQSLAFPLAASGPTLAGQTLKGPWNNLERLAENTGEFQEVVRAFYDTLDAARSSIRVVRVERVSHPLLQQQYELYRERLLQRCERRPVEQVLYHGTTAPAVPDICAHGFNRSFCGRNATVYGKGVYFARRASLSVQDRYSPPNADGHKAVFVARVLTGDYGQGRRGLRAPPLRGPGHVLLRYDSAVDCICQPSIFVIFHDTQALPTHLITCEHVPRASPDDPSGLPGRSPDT

PARP15 = target: T2, PARP15 (Homo sapiens, UniProt Q460N3); test: biochemical
T2 sequence (Q460N3 1-678): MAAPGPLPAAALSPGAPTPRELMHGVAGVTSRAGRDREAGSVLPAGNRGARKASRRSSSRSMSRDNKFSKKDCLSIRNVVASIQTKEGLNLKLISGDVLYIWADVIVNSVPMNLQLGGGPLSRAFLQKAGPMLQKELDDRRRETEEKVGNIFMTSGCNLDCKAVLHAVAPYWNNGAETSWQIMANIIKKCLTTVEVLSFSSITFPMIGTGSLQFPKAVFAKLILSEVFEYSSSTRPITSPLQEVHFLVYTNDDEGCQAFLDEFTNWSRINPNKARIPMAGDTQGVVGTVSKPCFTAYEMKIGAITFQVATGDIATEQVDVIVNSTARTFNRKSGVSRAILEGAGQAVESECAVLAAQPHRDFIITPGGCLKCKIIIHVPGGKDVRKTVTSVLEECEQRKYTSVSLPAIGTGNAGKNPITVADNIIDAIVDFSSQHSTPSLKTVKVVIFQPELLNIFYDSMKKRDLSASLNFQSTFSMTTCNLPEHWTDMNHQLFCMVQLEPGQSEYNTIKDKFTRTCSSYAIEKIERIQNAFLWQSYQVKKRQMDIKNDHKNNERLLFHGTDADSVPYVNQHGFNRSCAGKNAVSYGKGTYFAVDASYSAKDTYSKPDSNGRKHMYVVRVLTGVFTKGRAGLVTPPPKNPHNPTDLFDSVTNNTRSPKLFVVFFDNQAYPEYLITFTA
Protocol: (§1) All starting materials, reagents, and solvents were purchased from common commercial suppliers and were used as such without further purification. […] Organic solutions were dried over anhydrous Na2SO4 and concentrated with rotary evaporator at low pressure. All the reactions were routinely checked by thin-layer chromatography (TLC) on silica gel 60F254 (Merck) and visualized by using UV and iodine. Flash chromatography separations were carried out on Merck silica gel 60 (mesh 230-400) or by using automated Buchi Reveleris X2-UV with column FP Ecoflex Si 12 g. Yields were of purified products and were not optimized. ^1HNMR spectra were recorded at 400 MHz (Bruker Avance DRX-400), while ^13CNMR spectra were recorded at 101 MHz (Bruker Avance DRX-400). Chemical shifts are given in ppm (δ) relative to TMS. […] Mating constant (J) are reported in Hz. The purity of the tested compounds was evaluated by HPLC analysis using Jasco LC-4000 instrument equipped with a UV-Visible Diode Array Jasco-MD4015 (Jasco Corporation, Tokyo, Japan), and XTerra MS C18 column, 5 μm×4.6 mm×150 mm (Waters Corporation, Massachusetts, USA). Chromatograms were analyzed by ChromNAV2.0 Chromatography Data System software. […] The peak retention time (ret. time) is given in minutes. […] 1-Isobutoxy-4-methoxy-2-nitrobenzene (113). Isobutyl alcohol (0.6 mL, 6.43 mmol) was added, under nitrogen atmosphere at 0° C., to a suspension of NaH (0.26 g, 6.43 mmol) in dry DMF. After 15 minutes, 1-fluoro-4-methoxy-2-nitrobenzene 112 (1 g, 5.84 mmol) was also added and the reaction mixture was stirred at 80° C. for 4 h. […] (2-Isobutoxy-5-methoxyphenyl)amine (114). Zn (1.57 g, 24 mmol) and NH4C1 (2.45 g, 40 mmol) were added to a solution of 113 (0.46 g, 2 mmol) in acetone/H2O (50 mL, ratio 5:1). The reaction mixture was stirred at 60° C. for 3 h and, then, it was filtered over celite. […] N-(2,5-diethoxyphenyl)thiourea (55). […] N-(2-isobutoxy-5-methoxyphenyl)thiourea (115). […] A solution of Br2 (0.2 mL, 3.3 mmol) in CHCl3 (5 mL) was slowly added to a suspension of 45 (0.6 g, 3.3 mmol) in CHCl3 (13 mL), at 0° C. The reaction mixture was stirred at r.t. for 4 h and, then, a 10% solution of Na2SO3 in water was added to the mixture. […] 4,7-Diethoxy-1,3-benzothiazol-2-amine (66). […] 4-Isobutoxy-7-methoxy-1,3-benzothiazol-2-amine (116). […] Hydrazine hydrate (0.23 mL, 4.77 mmol) and CH3COOH (0.12 mL, 2.1 mmol) were added to a suspension of 56 (0.29 g, 1.59 mmol) in ethylene glycol (8 mL), and the reaction mixture was stirred for 24 h at 125° C. […] 6-Ethyl-2-hydrazino-1,3-benzothiazole (69). […] 6-Ispropyl-2-hydrazino-1,3-benzothiazole (70). […] 2-Hydrazino-4,7-dimethoxy-1,3-benzothiazole (73). […] 2-Hydrazino-5,7-dimethoxy-1,3-benzothiazole (75). […] 2-Hydrazino-4,7-Diethoxy-1,3-benzothiazole (77). […] 2-Hydrazino-5-methyl[1,3]thiazolo[5,4-b]pyridine (100). […] A solution of 67 (0.13 g, 0.65 mmol) in formic acid (5 mL) was refluxed for 10 h. The reaction mixture was then poured into ice/water and the pH was neutralized using a saturated solution of NaHCO3.

PARP2 = target: T3, PARP2 (Homo sapiens, UniProt Q9UGN5); test: biochemical; format: biochemical; details: NAD+ consumption assay; > less than 50% inhibition at highest concentration, >> no inhibition
T3 construct: made in house
Protocol: as §1

TNKS2 = target: T4, TNKS2 (Homo sapiens, UniProt Q9H2K2); test: biochemical; details: read-out: TNKS2 IC50; NAD+ consumption assay; > less than 50% inhibition at highest concentration, >> no inhibition
T4 sequence (Q9H2K2 1-1166): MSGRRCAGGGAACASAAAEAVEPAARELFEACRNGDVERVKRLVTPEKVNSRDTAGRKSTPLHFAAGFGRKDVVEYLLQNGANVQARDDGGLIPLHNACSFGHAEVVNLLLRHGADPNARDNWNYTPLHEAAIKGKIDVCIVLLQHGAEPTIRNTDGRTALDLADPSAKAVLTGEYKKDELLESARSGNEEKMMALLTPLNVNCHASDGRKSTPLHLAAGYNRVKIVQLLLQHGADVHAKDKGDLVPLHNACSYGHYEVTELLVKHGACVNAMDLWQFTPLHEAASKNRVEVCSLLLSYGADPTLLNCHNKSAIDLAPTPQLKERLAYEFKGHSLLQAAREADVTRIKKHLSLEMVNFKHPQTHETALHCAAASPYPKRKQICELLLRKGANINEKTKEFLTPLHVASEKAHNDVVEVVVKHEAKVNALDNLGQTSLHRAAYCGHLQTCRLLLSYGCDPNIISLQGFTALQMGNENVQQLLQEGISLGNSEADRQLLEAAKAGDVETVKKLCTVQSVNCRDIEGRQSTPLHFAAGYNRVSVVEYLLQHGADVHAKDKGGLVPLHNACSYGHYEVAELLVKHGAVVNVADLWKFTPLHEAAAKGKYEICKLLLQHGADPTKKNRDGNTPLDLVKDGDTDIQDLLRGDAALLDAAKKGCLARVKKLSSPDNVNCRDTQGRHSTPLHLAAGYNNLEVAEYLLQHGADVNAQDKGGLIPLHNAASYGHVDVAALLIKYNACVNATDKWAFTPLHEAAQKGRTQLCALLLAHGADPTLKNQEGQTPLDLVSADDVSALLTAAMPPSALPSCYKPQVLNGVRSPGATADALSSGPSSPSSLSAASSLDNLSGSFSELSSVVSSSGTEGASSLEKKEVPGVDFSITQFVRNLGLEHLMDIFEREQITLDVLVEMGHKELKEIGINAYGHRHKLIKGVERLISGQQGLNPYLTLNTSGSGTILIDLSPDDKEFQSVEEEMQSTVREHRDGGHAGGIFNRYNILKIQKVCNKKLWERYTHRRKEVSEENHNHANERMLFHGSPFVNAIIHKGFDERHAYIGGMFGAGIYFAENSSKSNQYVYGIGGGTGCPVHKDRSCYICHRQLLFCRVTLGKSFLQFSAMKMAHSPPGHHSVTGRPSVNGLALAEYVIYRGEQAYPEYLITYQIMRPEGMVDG
Protocol: as §1

[1] = Toxicity using the WST-1 assay
[2] = PARP10 IC50, Tables 1-3 assay, > less than 50% inhibition, >> no inhibition at reported concentration, * value limited by protein concentration
[3] = PARP10 pIC50 ± SEM, Tables 1-3 assay
[4] = read-out: PARP15 IC50, Tables 1-3 assay, > less than 50% inhibition, >> no inhibition at reported concentration, * value limited by protein concentration
[5] = Tables 1-3 assay, > less than 50% inhibition, >> no inhibition at reported concentration, * value limited by protein concentration, read-out: PARP10 IC50

T3 sequence (Q9UGN5 whole entry): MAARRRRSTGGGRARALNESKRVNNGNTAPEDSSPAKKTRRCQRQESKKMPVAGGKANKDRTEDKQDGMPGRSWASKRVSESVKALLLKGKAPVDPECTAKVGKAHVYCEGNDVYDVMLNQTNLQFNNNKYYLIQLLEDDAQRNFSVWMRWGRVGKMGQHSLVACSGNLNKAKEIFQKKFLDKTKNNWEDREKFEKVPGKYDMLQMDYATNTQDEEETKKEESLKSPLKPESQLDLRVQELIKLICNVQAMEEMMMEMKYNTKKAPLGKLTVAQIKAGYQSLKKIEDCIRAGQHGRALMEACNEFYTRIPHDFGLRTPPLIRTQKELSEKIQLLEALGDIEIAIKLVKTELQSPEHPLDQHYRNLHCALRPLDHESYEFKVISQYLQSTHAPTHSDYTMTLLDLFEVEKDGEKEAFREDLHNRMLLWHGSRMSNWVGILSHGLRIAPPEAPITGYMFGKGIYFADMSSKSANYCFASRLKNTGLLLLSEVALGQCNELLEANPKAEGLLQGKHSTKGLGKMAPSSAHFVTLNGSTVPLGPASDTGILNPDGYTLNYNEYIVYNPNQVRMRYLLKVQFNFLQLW

SMILES: CCOc1ccc(OCC)c2c1sc1nncn12 [Compound 102, 5,8-Diethoxy[1,2,4]triazolo[3,4-b][1,3]benzothiazole]
- inhibition of PARP10 (in words) (PARP10): potent PARP10 inhibitors
- IC50 (PARP10; PARP10 IC50, Tables 1-3 assay): 610 nM

SMILES: c1cnc2sc3nncn3c2c1 [Compound 101, [1,2,4]Triazolo[3′,4′:2,3][1,3]thiazolo[5,4-b]pyridine]
- inhibition of PARP10 (in words) (PARP10): only weak inhibition
- IC50 (PARP10; [2]): 30000 nM

SMILES: CCOc1ccc(OCC)c2c1sc1nnc(N)n12 [Compound 103, 5,8-Diethoxy[1,2,4]triazolo[3,4-b][1,3]benzothiazol-3-amine]
- inhibition of PARP10 (in words) (PARP10): potent PARP10 inhibitors
- IC50 (PARP10; PARP10 IC50, Tables 1-3 assay): 72 nM

SMILES: COc1cc2sc3nnc(N)n3c2cc1OC [Compound 104, 6,7-Dimethoxy[1,2,4]triazolo[3,4-b][1,3]benzothiazol-3-amine]
- IC50 (PARP15; PARP15 IC50, Tables 1-3 assay): 170 nM
- IC50 (PARP10; PARP10 IC50, Tables 1-3 assay): 110 nM
- IC50 (PARP10; [3]): 107 nM

SMILES: Nc1nnc2sc3cc(Br)ccc3n12 [Compound 108, 7-Bromo[1,2,4]triazolo[3,4-b][1,3]benzothiazol-3-amine]
- IC50 (PARP15; PARP15 IC50, Tables 1-3 assay): 150 nM
- IC50 (PARP15; PARP15 pIC50 ± SEM, Tables 1-3 assay): 145 nM
- IC50 (PARP10; PARP10 IC50, Tables 1-3 assay): 60 nM

SMILES: CC(=O)Nc1nnc2sc3cc(C)ccc3n12 [Compound 107, N-(7-methyl[1,2,4]triazolo[3,4-b][1,3]benzothiazol-3-yl)acetamide]
- IC50 (PARP15; PARP15 IC50, Tables 1-3 assay, > less than 50% inhibition, >> no inhibition at reported concentration, * value limited by protein concentration): 5200 nM
- IC50 (PARP10; [2]): 2600 nM

SMILES: COc1ccc(OC)c2c1SC1=NNC(SC)N12 (stereo not drawn) [Compound 27, 5,8-Dimethoxy-3-(methylthio)-2,3-dihydro[1,2,4]triazolo[3,4-b][1,3]benzothiazole]
- IC50 (PARP15; [4]): > 10000 nM
- IC50 (PARP10; [5]): > 10000 nM

SMILES: COc1ccc(OC)c2c1SC1=NNC(NC(=O)c3ccc(Cl)cc3)N12 (stereo not drawn) [Compound 29, 4-Chloro-N-(5,8-dimethoxy-2,3-dihydro[1,2,4]triazolo[3,4-b][1,3]benzothiazol-3-yl)benzamide]
- IC50 (PARP15; [4]): 7900 nM
- IC50 (PARP10; [5]): > 10000 nM

SMILES: COc1ccc(OCC(C)C)c2c1sc1nnc(N)n12 [Compound 110, 5-Isobutoxy-8-methoxy[1,2,4]triazolo[3,4-b][1,3]benzothiazol-3-amine]
- IC50 (PARP15): 180 nM
- IC50 (PARP10; PARP10 IC50, Tables 1-3 assay): 80 nM
- IC50 (PARP10; [3]): 81.3 nM

SMILES: Oc1ccc(O)c2c1sc1nncn12 [Compound 17, [1,2,4]Triazolo[3,4-b][1,3]benzothiazol-5,8-diol]
- IC50 (PARP2): 240 nM
- IC50 (TNKS2): 3100 nM
- toxicity (WST-1 assay) [1]: dose dependent toxicity
